Measurements as given in PMC3116189, “Novel Natural Inhibitors of CYP1A2 Identified by in Silico and in Vitro Screening” (International Journal of Molecular Sciences, 2011).
Read-outs that look alike come from different tables or passages of the source.

Target: T1, CYP1A2 (Homo sapiens, UniProt P05177)
T1 sequence (P05177 1-516): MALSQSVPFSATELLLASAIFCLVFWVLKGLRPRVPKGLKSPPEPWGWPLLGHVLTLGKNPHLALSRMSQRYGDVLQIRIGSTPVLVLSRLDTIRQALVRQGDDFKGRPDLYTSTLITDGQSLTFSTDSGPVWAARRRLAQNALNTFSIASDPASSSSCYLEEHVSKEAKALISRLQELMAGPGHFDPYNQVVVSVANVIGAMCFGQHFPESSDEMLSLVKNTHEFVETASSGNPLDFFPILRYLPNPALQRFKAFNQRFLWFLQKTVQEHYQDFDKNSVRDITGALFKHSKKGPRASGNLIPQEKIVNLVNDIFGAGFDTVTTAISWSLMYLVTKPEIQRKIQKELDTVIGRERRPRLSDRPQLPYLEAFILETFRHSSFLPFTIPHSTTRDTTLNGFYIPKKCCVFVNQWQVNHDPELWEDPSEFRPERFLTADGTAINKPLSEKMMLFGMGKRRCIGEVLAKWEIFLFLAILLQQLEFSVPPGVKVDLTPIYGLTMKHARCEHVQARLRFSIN
Assay: in vitro
Format: biochemical
Settings: for activity at 1 h, 1 μM: human

[1] = recombinant human CYP1A2, pH 7.4, probe phenacetin (25 μM), O-deethylation to acetaminophen, 1 μM active ingredient, Rh CYP1A2-mediated phenacetin O-deethylation, test dataset of 202 herb ingredients, read-out: % of Control Indication Activity (Mean)
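Note: recombinant CYP1A2 incubated for 1 h at 37 °C, with the reaction started by an NADPH-generating system.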

Protocol: A total of 18 candidate compounds selected by pharmacophore and docking were examined for their potential to inhibit rhCYP1A2 phenacetin O-deethylation activity at a test concentration of 1 μM.
The basic incubation medium contained 100 mM potassium phosphate buffer (PH 7.4), 50 pmol recombinant human CYP1A2, 25 μM phenacetin and 1 μM active ingredients. The final incubation volume was 200 μL. After 5 min pre-incubation at 37 °C, the reaction was initiated by the addition of NADPH-generating system (5 mM MgCl2, 10 mM glucose 6-phosphates, 1 mM NADPH, and 2.5 U per mL glucose 6-phosphate dehydrogenase). Incubations were performed in a 37 °C shaking water bath for 1 h. Reactions were stopped by adding 0.4 mL of ice-cold acetonitrile containing 0.2 mg/L tinidazole (IS). […] The column was maintained at 35 °C and the injection volume was 10 μL.

Compound	activity at 1 h, 1 μM [1]	activity at 1 h, 1 μM (recombinant enzyme, pH 7.4)	further results
O=Cc1ccc(CO)o1 [5-Hydroxymethylfurfural]	> 90%		
COC1=C[C@@H]2[C@@H]3Cc4ccc(OC)c(O)c4[C@]2(CCN3C)CC1=O [Sinomenine]			activity (recombinant enzyme, pH 7.4): > 90%
Oc1cc(O)c2c(c1)O[C@H](c1ccc(O)c(O)c1)[C@H](O)C2 [(−)-Epicatechin]	> 90%		
COc1cc2c(c(OC)c1OC)-c1c(cc(OC)c(OC)c1OC)C[C@H](C)[C@H](C)C2 [Deoxyschizandrin]			% of Control Indication Activity (Mean) (1 μM active ingredient, Rh CYP1A2-mediated phenacetin O-deethylation, test dataset of 202 herb ingredients): > 90%
C[C@@H]1C(=O)O[C@H]2C[C@@]34[C@H]5C[C@@H](C(C)(C)C)[C@]36[C@@H](OC(=O)[C@@H]6O)O[C@@]4(C(=O)O5)[C@]21O [Ginkgolide A]			activity (recombinant enzyme, pH 7.4, 1 μM active ingredient, Rh CYP1A2-mediated phenacetin O-deethylation, test dataset of 202 herb ingredients, read-out: % of Control Indication Activity (Mean)): > 90%
Cc1cc(O)c2c(c1)C(=O)c1cc(O)cc(O)c1C2=O [Emodin]		> 90%	
COc1ccc2cc1Oc1ccc(cc1)C[C@H]1c3cc(c(OC)cc3CCN1C)Oc1c(OC)c(OC)cc3c1[C@H](C2)N(C)CC3 [Tetrandrine]		> 90%	
C/C1=C\CC[C@]23O[C@H]2[C@@H](OC3=O)c2c(C)coc2C1 [Linderane]	> 90%		
COc1ccc(-c2oc3c(CC=C(C)C)c(O)cc(O)c3c(=O)c2O)cc1 [Icaritin]		> 90%	
